Source: patent publication US20230248850A1, “GOLD MOLECULAR CLUSTERS AND METHODS OF USING SAME FOR NEAR-INFRARED IMAGING” (The Board of Trustees of the Leland Stanford Junior …, priority 2022, published 2023)
Entries after “also recorded” stand apart in the source; their conditions may differ.

Columns and labels:
Balb/c mice [1] = assay: NIR-II lymph node imaging after subcutaneous injection at tail base; type: in vivo, mouse; settings: s.c. tail base
Experimental: Investigated next was LN draining post subcutaneous (s.c.) injection of the three probes at the mouse tail base (FIG. 5) (5-7 weeks old female Balb/c, n=3 in each group). The Au-PC clusters within 3 min p.i. migrated to the lymphatic vessels connecting the injection site to the draining iLN (FIG. 5A and FIG. 23). Strong signals in the iLN were seen up to 1 h and decreased by ˜40% 2 h p.i. (FIG. 5D). […] In contrast, upon ICG administration (FIG. 5C), the fluorescent signal in iLN appeared 3 min p.i. but with an intensity much lower compared to that of Au-PC probe at the same time postinjection (FIG. 5F). After 2-3 h p.i. (or even later) ICG signal in the iLN reached peak intensity and persisted. […] The retention of ICG at the injection site persisted over an extended period of time (FIG. 5F) much longer than Au-PC. The Au-PC molecular clusters were also unique with little retention at subcutaneous injection sites among various nanomaterials (with well-coated hydrophilic layers such as PEG) including quantum dots (QDs), carbon nanotubes (CNTs) and organic NIR II dyes^67,68. The trapping of NIR-II probes at the injection site and staining it for weeks is undesirable due to potential long-term side effects.
(§1) The animal experiments and imaging in the NIR-II window were conducted in a two-dimensional, water-cooled 640×512 InGaAs array (Ninox 640, Raptor Photonics). The clusters were excited by an 808-nm continuous-wave diode laser at a power density of 70 mW/cm^2. 1100 nm long-pass filter was used in all the imaging experiments unless stated otherwise. The fluorescent probes were administered through tail vein (intravenous, i.v.), tail base (subcutaneous, s.c.) and (peri)intratumoral (i.t.). NIR-II fluorescence images were recorded at 3 min, 10 min, 30 min, 1 h, 3 h, 6 h, 24 h, 48 h p.i.

[2] = system: mice bearing syngeneic 4T1 murine breast tumors; assay: NIR-II lymph node imaging after intra-/peri-tumoral injection, 4T1 tumors; type: in vivo, mouse
Experimental: For lymph node imaging, intra-tumor/peri-tumor administration (i.t.) of Au-PC clusters to mice (5-7 weeks old female Balb/c, n=3 in each group) bearing syngeneic 4T1 murine breast tumors and CT26 colon tumors inoculated on hindlimbs was performed. Several doses of Au-PC probes, including 4× (˜1.2 mg, tumors on both hindlimbs), 1× (˜300 μg, tumor on the right hindlimb) and ⅓× (˜100 μg, tumor on the right hindlimb) were administered (FIG. 3A, FIGS. 16 and 17). The draining inguinal lymph nodes (iLN) started to show NIR-II emission of Au-PC within ˜1 min p.i. and reached high brightness within ˜3 min p.i. (FIG. 3A, FIG. 17 for 4T1; FIG. 12A for CT26 tumor). The LN signal persisted for over 1 h in the draining iLNs (FIG. 3A) after reaching peak intensity at ˜30 min p.i., with a LN/background signal ratio ˜5-10 (FIG. 3D, FIG. 12D). […] The signal completely disappeared after […] p.i. of the Au-PC probe. The Au-PC clusters afforded rapid and effective imaging/detection of the primary tier draining LNs with much weaker signals in higher tier nodes.
3-9-week-old BALB/c female mice (weight: 15-20 g) were purchased from Charles River. The mice were housed on a 12-hour light/12-hour dark at ambient temperature =20-25° C. and humidity=50-65% in Stanford University's Veterinary Service Center. The bedding, nesting material, food and water were provided by the Stanford VSC facility. Prior to each experiment, the mice were shaved using hair-removing lotion (Nair, Softening Baby Oil). For in vivo imaging, the mice were anaesthetized by 2.5% isoflurane and oxygen as a carrying gas at a flow rate of 2 L/min. Per animal care protocols, the mice were carefully monitored during the imaging process and postrecovery period. The experimental groups consisted of n=3 mice. […]
The animal experiments and imaging in the NIR-II window were conducted in a two-dimensional, water-cooled 640×512 InGaAs array (Ninox 640, Raptor Photonics). […] NIR-II fluorescence images were recorded at 3 min, 10 min, 30 min, 1 h, 3 h, 6 h, 24 h, 48 h p.i.

Balb/c mice [3] = assay: In vivo NIR-II fluorescence imaging after intravenous injection; set-up: species or system mouse; settings: i.v. injection, up to 24 h p.i.
Experimental: In vivo, the Au-GSH and Au-PC clusters dissolved in PBS were first intravenously (i.v.) administered to mice (5-7 weeks old female Balb/c, n=3 in each group) through tail-vein injection, imaged in the >1100 nm NIR-II window and compared side by side with the clinically approved ICG dye. The bladder NIR-II signals in mice rapidly lit up, at ˜3 min postinjection (p.i) (FIG. 2A, 2B ventral view), as a consequence of kidney drainage for fast renal clearance (dorsal/lateral view images in FIGS. 13A and 14A, respectively).
as §1

[4] = Excretion by ICP-MS after intra-tumoral injection; type: in vivo, mouse; settings: i.t. injection
Experimental: The biodistribution of probes was analyzed 10 min, 30 min, 24 h or 48 h postadministration. The urine, feces and major organs including the liver, spleen, heart, lungs, and kidneys were collected and digested in nitric acid (68%) for 12 h. Afterwards, the solutions were heated to 150° C. in the digestion solution (nitric acid:hydrogen peroxide=4:1) until transparent and colorless solution was obtained. The concentration of gold in each sample was measured by ICP-MS (Thermo Scientific ICAP 6300 Duo View Spectrometer).

serum proteins (FBS) = assay: in vitro; type: in vitro ADME; settings: bovine
Experimental: Evaluated next were the serum protein binding capabilities of Au-GSH cluster and Au-PC conjugate with FBS and compared to that of ICG. Briefly, the clusters and ICG were incubated with FBS for 1 h at 37° C. (FIG. 12). Afterwards, the solutions were filtered using Amicon 50 kDa centrifuge filters (FIGS. 12A and 12B). Au clusters bound to serum proteins will not pass filter while free unbound clusters will be lost to the filtrate. The optical density (OD) of filtrate (in case of Au-GSH and Au-PC) and retentate (in case of ICG) at 808 nm were measured and the corresponding serum protein binding efficiencies were calculated (FIG. 12C). The schematics of the experiments, figures, and absorbance values of Au-GSH+FBS and Au-PC+FBS filtrates as well as ICG+FBS retentate can be found in FIG. 12. The serum protein binding efficiencies for Au-GSH cluster, Au-PC conjugate and ICG were calculated to be 2.7%, 1.74% and 94.5%, respectively.

time fluorescent signal in iLN appeared (Balb/c mice [1]): 3 min | time of iLN signal peak (Balb/c mice [1]): 2 to 3 h | time of peak lymph node intensity ([2]; i.t. injection into 4T1 tumor): 2 to 3 h | excretion route [4]: liver excretory system | fraction unbound at 1 h (serum proteins (FBS)): 0.055
SMILES: CC1(C)C(/C=C/C=C/C=C/C=C2\N(CCCCS(=O)(=O)O)c3ccc4ccccc4c3C2(C)C)=[N+](CCCCS(=O)(=O)[O-])c2ccc3ccccc3c21 [ICG, indocyanine green]
signal retention at 24 h p.i. (Balb/c mice [1]): significant signal still remained in the lymph node, at the injection site and in the liver | signal at tumor injection site 24 h p.i. ([2]; i.t. injection): significant signals were still detected at the tumor injection sites | LN/background (LN/B) signal ratio ([2]; i.t. injection, 4T1 tumors, at peak intensity): 4 | NIR-II signal distribution and retention in organs (Balb/c mice [3]): strong NIR-II signals were observed in liver and intestine; also recorded: no significant ICG retention in major organs
